For test [1], the system named is HT-29 human colon cancer cell line. The experiment in a line: In vitro cytostatic effect, alamarBlue assay, HT-29. The test is classed as cell-based. The text has this: (§1) Cell lines often function as the first model system of choice to study biological processes or to test the efficiency of drugs or drug conjugates and their cytotoxic effects. Immortal cell lines offer various benefits, for instance they are easy to handle, cost-effective and provide consistent sample and reproducible results. Nevertheless, cell lines also present the disadvantage that after a period of continuous growth, cell characteristics can change and dedifferentiate in culture. The serial passaging can cause genotypic and phenotypic variations and the state of confluency can also affect gene expression pattern in some cell lines. Due to this, the usage of internal standards during the evaluation of new potential candidates might be necessary to ensure comparability with previous results. The cytostatic effect of the novel GnRH-III bioconjugates was determined on HT-29 human colon cancer and MCF-7 human breast cancer cell lines by alamarBlue® assay. For a better comparison, the well-studied bioconjugates GnRH-III–[^8Lys(Dau=Aoa)] (K1) and GnRH-III–[^4Lys(Bu), ^8Lys(Dau=Aoa)] (K2) were used as positive controls and internal standards. The corresponding IC50 values were calculated by using nonlinear regression (sigmoidal dose response) (Figure 3, Table 2). Unfortunately, the D-Trp containing compounds 3 and 6 started to precipitate in both cell culture media at higher concentrations limiting the concentration down to a maximum of 10 µM. This effect could not be prevented by using DMSO instead of ddH2O for the preparation of the stock solutions. Unfortunately, the lower concentration range with a maximum of 10 µM was not sufficient to achieve the dose-response. […] Nevertheless, the replacement of ^6Asp by D-Asp, D-Glu or D-Trp led to a decreased cytostatic effect on the estimated cancer cell lines.
(§2) MCF-7 human breast adenocarcinoma cells were cultured in Dulbecco’s Modified Eagle Medium (DMEM, Lonza, Basel, Switzerland), supplemented with 10% (v/v) fetal bovine serum (FBS, Lonza), L-glutamine (2 mM, Lonza), non-essential amino acids (NEAA, Sigma-Aldrich Kft), sodium pyruvate (1 mM, Lonza) and penicillin-streptomycine (Lonza). […]
(§3) Cells were seeded to 96-well plates (Sarstedt, Nümbrecht, Germany, 5 × 10^3 cells/well) one day prior to the treatment in complete cell medium. […] Fluorescence was detected using Synergy H4 multi-mode microplate reader (BioTek, Winooski, VT, USA), excitation and emission wavelengths were set to 570 and 620 nm, respectively. Cytostasis was measured using 4 parallels, each experiment was repeated twice. Cytostatic effect (and IC50 values) were calculated by using nonlinear regression (sigmoidal dose response) with Origin Pro8 (OriginLab Corp., Northampton, MA, USA.).
For orientation: Resazurin is reduced to fluorescent resorufin, in cell work by metabolically active cells.

The subject of test [2] is MCF-7 human breast cancer cell line. The experiment in a line: In vitro cytostatic effect, alamarBlue assay, MCF-7. The test is classed as cell-based.
Text: as §1, §2, §3

Where two headings read alike, the source gives them in different places. Non-standard residues stand in square brackets, D forms with d. Residues, ends and D or L forms follow the SMILES beside them. *: point of attachment. Daunorubicin(13-NOCH2CO) = COc1cccc2c1C(=O)c1c(O)c3c(c(O)c1C2=O)C[C@@](O)(C(C)=NOCC(=O)*)C[C@@H]3O[C@H]1C[C@H](N)[C@H](O)[C@H](C)O1; pGlu = O=C1CC[C@@H](C(=O)O)N1; Butyryl = CCCC(=O)*

One may read the IC50 as the midpoint of a concentration-inhibition curve.

As to `COc1cccc2c1C(=O)c1c(O)c3c(c(O)c1C2=O)C[C@@](O)(C(C)=NOCC(=O)NCCCC[C@H](NC(=O)[C@H](Cc1c[nH]c2ccccc12)NC(=O)[C@@H](CCC(=O)O)NC(=O)[C@H](Cc1c[nH]cn1)NC(=O)[C@H](CO)NC(=O)[C@H](Cc1c[nH]c2ccccc12)NC(=O)[C@H](Cc1c[nH]cn1)NC(=O)[C@@H]1CCC(=O)N1)C(=O)N1CCC[C@H]1C(=O)NCC(N)=O)C[C@@H]3O[C@H]1C[C@H](N)[C@H](O)[C@H](C)O1` [compound 2, [6D-Glu, 8Lys(Dau=Aoa)]] ([pGlu]HWSH[dE]WK(Daunorubicin(13-NOCH2CO))PG-NH2), the figures for the half-inhibitory concentration (IC50) in test [1] (24 h) and in test [2] (24 h) were 10.1 ± 1.4 µM and 6.8 ± 1 µM, respectively.

For `CCCC(=O)NCCCC[C@H](NC(=O)[C@H](Cc1c[nH]c2ccccc12)NC(=O)[C@H](Cc1c[nH]cn1)NC(=O)[C@@H]1CCC(=O)N1)C(=O)N[C@@H](Cc1c[nH]cn1)C(=O)N[C@H](CCC(=O)O)C(=O)N[C@@H](Cc1c[nH]c2ccccc12)C(=O)N[C@@H](CCCCNC(=O)CON=C(C)[C@]1(O)Cc2c(O)c3c(c(O)c2[C@@H](O[C@H]2C[C@H](N)[C@H](O)[C@H](C)O2)C1)C(=O)c1c(OC)cccc1C3=O)C(=O)N1CCC[C@H]1C(=O)NCC(N)=O` [compound 5, [4Lys(Bu), 6D-Glu, 8Lys(Dau=Aoa)]] ([pGlu]HWK(Butyryl)H[dE]WK(Daunorubicin(13-NOCH2CO))PG-NH2), the IC50 worked out at 13.7 ± 2.6 µM in test [1] (24 h treatment, then 48 h in complete medium, alamarBlue, mean ± SE, read-out: HT-29 IC50) and 7 ± 1.2 µM in test [2] (24 h treatment, then 48 h in complete medium, alamarBlue, mean ± SE, read-out: MCF-7 IC50).
